Test results: patent US4387238A, “Epoxysuccinamic acid compounds” (Taisho Pharmaceutical Co., Ltd., priority 1978, dated 1983)

Each compound was assayed on adjuvant-induced polyarthritis (assay: Effect on the development of adjuvant-induced polyarthritis in rat (hind paw volume)). Conditions: 408 h, 30 mg/kg of body weight, daily oral, day 17, mean inhibition for increase of hind paw volume, 8 rats/group, read-out: Inhibition(%) 17 days.
Format: in vivo, Sprague Dawley rat
Procedure: The compounds of the present invention show excellent anti-inflammatory activity as measured by their ability to inhibit adjuvant induced polyarthritis as compared with the known epoxysuccinates. That is, they show potent and continuous effectiveness on oral administration of smaller components than the known epoxysuccinic acid compounds. Effect of the compounds of the present invention on the development of adjuvant-induced polyarthritis in rat was assayed as follows: Adjuvant arthritis is produced by a single intracutaneous injection of 0.1 ml of the adjuvant mixture containing heat-killed mycobacteria of the human Aoyama B strain suspended in liquid paraffin in 0.6% in the middle part of the distal tail of Sprague Dawley rat (female, 8 weeks old). The compounds suspended in 0.5% carboxymethylcellulose solution protect the animal against the development of lession of adjuvant arthritis in daily oral administration beginning on the day of adjuvant injection and continuing for 24 days thereafter. The activity is measured as the mean inhibition percent for the increase of the hind paw volume of the 8 rats/group on the days 17 and 23 on which the legs become inflamed and reach maximum volumes. The compound Nos. in Table 1 are as defined in Examples as described hereinafter.
CCOC(=O)[C@@H]1O[C@H]1C(=O)Nc1ccccc1 (relative stereo) [Compound No. 1, ethyl N-phenyl-2,3-epoxysuccinamate] was tested, and the inhibition in vivo at 30 mg/kg was 70%. In the case of CCOC(=O)[C@@H]1O[C@H]1C(=O)Nc1ccc([N+](=O)[O-])cc1 (relative stereo) [Compound No. 5, ethyl N-4'-nitrophenyl-2,3-epoxysuccinamate], the inhibition in vivo at 30 mg/kg is reported as 65%. O=C(NC1CCCCC1)[C@@H]1O[C@H]1C(=O)OC1CCCC1 (relative stereo) [Compound No. 25, cyclopentyl N-cyclohexyl-2,3-epoxysuccinamate] gave an inhibition in vivo at 30 mg/kg of 76%.

Same assay, conditions: 552 h, 30 mg/kg of body weight, daily oral, day 23, mean inhibition for increase of hind paw volume, 8 rats/group, read-out: Inhibition(%) 23 days
For CCOC(=O)[C@@H]1O[C@H]1C(=O)Nc1ccccc1 (relative stereo) [Compound No. 1, ethyl N-phenyl-2,3-epoxysuccinamate], the inhibition in vivo at 30 mg/kg was 62%. CCOC(=O)[C@@H]1O[C@H]1C(=O)Nc1ccc([N+](=O)[O-])cc1 (relative stereo) [Compound No. 5, ethyl N-4'-nitrophenyl-2,3-epoxysuccinamate] was tested, and the inhibition in vivo at 30 mg/kg was 48%. O=C(NC1CCCCC1)[C@@H]1O[C@H]1C(=O)OC1CCCC1 (relative stereo) [Compound No. 25, cyclopentyl N-cyclohexyl-2,3-epoxysuccinamate] was tested, and the inhibition in vivo at 30 mg/kg was 58%.

The compounds below were run against T1, papain (Carica papaya, UniProt P00784) (assay: Papain inhibitory activity (milk casein proteolysis)). Conditions: amount of inhibitor for 50% inhibition; pH 6.8, 40° C., casein substrate.
T1 construct: purchased Sigma Chem. Co
T1 sequence (P00784 134-345): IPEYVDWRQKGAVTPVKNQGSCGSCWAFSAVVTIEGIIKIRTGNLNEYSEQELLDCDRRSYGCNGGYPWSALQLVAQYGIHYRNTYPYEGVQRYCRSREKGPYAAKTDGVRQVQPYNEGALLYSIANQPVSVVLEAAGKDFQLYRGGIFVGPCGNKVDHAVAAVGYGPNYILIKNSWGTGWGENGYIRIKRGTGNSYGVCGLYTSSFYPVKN
Format: biochemical
Design: unit not given beside the values
Procedure: Papain inhibitory activity of the compounds of the present invention was assayed as follows: To 0.5 ml of a solution of papain (80 μg/ml, Sigma Chem. Co., 2x, cry.), were added 0.25 ml of 40 mM cysteine dissolved in 20 mM disodium ethylenediamine tetraacetic acid solution adjusted pH to 6.8 with sodium hydroxide and 0.25 ml of 33 mM phosphate buffer (pH 6.8) with or without inhibitor. After incubation for 15 minutes at 40° C., the resulting mixture was added to 5 ml of 1% milk casein solution in the same buffer as described above, and further incubated for 10 minutes at 40° C. Then the mixture was mixed with 5 ml of 0.44 M trichloroacetic acid solution and followed by filtration with a sheet of Toyo filter paper No. 4.
The extinction of the filtrate was read at 280 nm. The percent inhibition was calculated from the formula, 100×(B-A)/B; wherein B stands for the absorbance without inhibitor and A for the absorbance with inhibitor. The compound Nos. in Table 2 are as defined in Examples as described hereinafter.
For CCOC(=O)[C@@H]1O[C@H]1C(=O)Nc1ccccc1 (relative stereo) [Compound No. 1, ethyl N-phenyl-2,3-epoxysuccinamate], the ID50 was 24.04 γ. For CCOC(=O)[C@@H]1O[C@H]1C(=O)Nc1ccc([N+](=O)[O-])cc1 (relative stereo) [Compound No. 5, ethyl N-4'-nitrophenyl-2,3-epoxysuccinamate], the ID50 was 22.32 γ. In the case of O=C(NC1CCCCC1)[C@@H]1O[C@H]1C(=O)OC1CCCC1 (relative stereo) [Compound No. 25, cyclopentyl N-cyclohexyl-2,3-epoxysuccinamate], the ID50 is reported as 3.68 γ. CCOC(=O)[C@@H]1O[C@H]1C(=O)N1CCCCC1 (relative stereo) [Compound No. 77, Ethyl N-pentamethylene-2,3-epoxysuccinamate] was tested, and the ID50 was 145.21 γ. With O=C(OCc1ccccc1)[C@@H]1O[C@H]1C(=O)N1CCCCC1 (relative stereo) [Compound No. 78, Benzyl N-pentamethylene-2,3-epoxysuccinamate] the ID50 was 34.23 γ. In the case of O=C(OCCCC1CCCC1)[C@@H]1O[C@H]1C(=O)N1CCCC1 (relative stereo) [Compound No. 79, 3'-Cyclopentanepropyl N-tetramethylene-2,3-epoxysuccinamate], the ID50 is reported as 36.25 γ. In the case of CCOC(=O)[C@@H]1O[C@H]1C(=O)Nc1ccccc1C(=O)O (relative stereo) [Compound No. 81, ethyl N-2'-carboxyphenyl-2,3-epoxysuccinamate], the ID50 is reported as 36.76 γ. For CCOC(=O)[C@@H]1O[C@H]1C(=O)Nc1cc(Cl)ccc1C(=O)O (relative stereo) [Compound No. 82, ethyl N-2'-carboxy-5'-chlorophenyl-2,3-epoxysuccinamte], the ID50 was 277.80 γ. With CCOC(=O)[C@@H]1O[C@H]1C(=O)NCC1CC1 (relative stereo) [Compound No. 83, ethyl N-cyclopropanemethyl-2,3-epoxysuccinamate] the ID50 was 130.20 γ. CNC(=O)[C@H]1O[C@@H]1C(=O)Oc1ccccc1 (relative stereo) [Compound No. 84, phenyl N-methyl-2,3-epoxysuccinamate] was tested, and the ID50 was 12.65 γ. CCOC(=O)[C@@H]1O[C@H]1C(=O)N(C)C (relative stereo) [Compound No. 85, ethyl N,N-dimethyl-2,3-epoxysuccinamate] was tested, and the ID50 was 39.50 γ. In the case of CNC(=O)[C@@H]1O[C@H]1C(=O)OCCC(C)C (relative stereo) [Compound No. 89, Isoamyl N-methyl-2,3-epoxysuccinamate], the ID50 is reported as 14.81 γ. For CC(C)CCOC(=O)[C@@H]1O[C@H]1C(=O)N(C)C (relative stereo) [Compound No. 90, Isoamyl N,N-dimethyl-2,3-epoxysuccinamate], the ID50 was 50.25 γ. With CNC(=O)[C@H]1O[C@@H]1C(=O)OCc1ccccc1 (relative stereo) [Compound No. 91, Benzyl N-methyl-2,3-epoxysuccinamate] the ID50 was 9.68 γ. In the case of CCOC(=O)[C@@H]1O[C@H]1C(=O)N1CCCCC1C(=O)OCc1ccccc1 (relative stereo) [Compound No. 92, Ethyl N-1'-carbobenzoxypentamethylene-2,3-epoxysuccinamate], the ID50 is reported as 120.10 γ. CC(C)OC(=O)[C@@H]1O[C@H]1C(=O)Nc1ccccc1 (relative stereo) [Compound No. 93, isopropyl N-phenyl-2,3-epoxysuccinamate] was tested, and the ID50 was 21.55 γ. For O=C(Nc1ccccc1)[C@@H]1O[C@H]1C(=O)OCC1CCCCC1 (relative stereo) [Compound No. 94, cyclohexanemethyl N-phenyl-2,3-epoxysuccinamate], the ID50 was 1.51 γ. With O=C(O)[C@@H]1O[C@H]1C(=O)Nc1ccccc1 (relative stereo) [Compound No. 95, potassium N-phenyl-2,3-epoxysuccinamate] the ID50 was 0.330 γ. O=C(O)[C@@H]1O[C@H]1C(=O)NCc1ccccc1 (relative stereo) [Compound No. 96, potassium N-benzyl-2,3-epoxysuccinamate] was tested, and the ID50 was 0.158 γ. With CC(C)CCNC(=O)[C@H]1O[C@@H]1C(=O)O (relative stereo) [Compound No. 97, potassium N-isoamyl-2,3-epoxysuccinamate] the ID50 was 0.266 γ. With O=C(O)[C@@H]1O[C@H]1C(=O)NC1CCCCC1 (relative stereo) [Compound No. 100, sodium N-cyclohexyl-2,3-epoxysuccinamate] the ID50 was 0.231 γ. With O=C(O)[C@@H]1O[C@H]1C(=O)N1CCCCC1 (relative stereo) [Compound No. 101, Potassium N-pentamethylene-2,3-epoxysuccinamate] the ID50 was 4.05 γ. With CCNC(=O)[C@H]1O[C@@H]1C(=O)O (relative stereo) [Compound No. 102, Potassium N-ethyl-2,3-epoxysuccinamate] the ID50 was 1.34 γ. In the case of O=C(O)[C@@H]1O[C@H]1C(=O)N1CCCC1 (relative stereo) [Compound No. 103, Sodium N-tetramethylene-2,3-epoxysuccinamate], the ID50 is reported as 13.42 γ. For O=C(O)[C@@H]1O[C@H]1C(=O)Nc1ccccc1 (relative stereo) [Compound No. 104, Sodium N-phenyl-2,3-epoxysuccinamate], the ID50 was 0.315 γ. With O=C(O)[C@@H]1O[C@H]1C(=O)Nc1ccccc1 (relative stereo) [Compound No. 105, N-phenyl-2,3-epoxysuccinamic acid] the ID50 was 0.278 γ. O=C(O)[C@@H]1O[C@H]1C(=O)NC1CCCCC1 (relative stereo) [Compound No. 107, N-Cyclohexyl-2,3-epoxysuccinamic acid] was tested, and the ID50 was 0.214 γ. O=C(O)[C@@H]1O[C@H]1C(=O)NCC1CCCC1 (relative stereo) [Compound No. 108, N-Cyclopentanemethyl-2,3-epoxysuccinamic acid] was tested, and the ID50 was 0.234 γ. In the case of C=CCOC(=O)[C@H]1O[C@@H]1C(=O)NCC1CCCC1 (relative stereo) [compound 38, Allyl N-cyclopentanemethyl-2,3-epoxysuccinamate], the ID50 is reported as 4.26 γ. In the case of COC(=O)[C@@H]1O[C@H]1C(=O)NC(C)C (stereo in doubt) [Compound No. 34, Methyl N-isopropyl-2,3-epoxysuccinamate], the ID50 is reported as 32.35 γ. In the case of COC(=O)[C@H]1O[C@@H]1C(=O)NC(C)C (stereo in doubt) [Compound No. 60, Methyl N-isopropyl-2,3-epoxysuccinamate], the ID50 is reported as 32.35 γ. CCOC(=O)[C@@H]1O[C@H]1C(=O)N1CCOC(C)C1 (some centres unmarked) [Compound No. 33, ethyl N-1'-methyloxydiethylene-2,3-epoxysuccinamate] was tested, and the ID50 was 95.10 γ. For CCOC(=O)C1OC1C(=O)N1CCSCC1C (centres unmarked) [Compound No. 80, Ethyl N-1'-methylthiadiethylene-2,3-epoxysuccinamate], the ID50 was 120.53 γ. For CCOC(=O)C1OC1C(=O)N1CCCC1C(=O)OCc1ccccc1 (centres unmarked) [Compound No. 86, ethyl N-1'-carbobenzoxytetramethylene-2,3-epoxysuccinamate], the ID50 was 105.50 γ. For CCOC(=O)C1OC1C(=O)N1CCCC1C(=O)OC (centres unmarked) [Compound No. 87, ethyl N-1'-carbomethoxytetramethylene-2,3-epoxysuccinamate], the ID50 was 98.10 γ. With CCCCOC(=O)C1CCCN1C(=O)C1OC1C(=O)OCC (centres unmarked) [Compound No. 88, ethyl N-1'-carbobutoxytetramethylene-2,3-epoxysuccinamate] the ID50 was 118.41 γ. In the case of O=C(O)C1OC1C(=O)N1CCCC1C(=O)O (centres unmarked) [Compound No. 99, potassium N-1'-carbopotassium oxytetramethylene-2,3-epoxysuccinamate], the ID50 is reported as 0.104 γ. For O=C(O)C1OC1C(=O)N1CCCC1C(=O)O (centres unmarked) [Compound No. 106, N-1'-carboxytetramethylene-2,3-epoxysuccinamic acid], the ID50 was 0.301 γ.
